Measurements reported in PubChem BioAssay AID248 (DTP/NCI, 2004).
Toxic doses and inconclusive results are not listed. Cut-off read from the data, not from the text of the source: active = T/C of 150% or more; inactive = T/C below 125%.

Test system: L1210 leukemia ip in BDF1 mice, survival T/C
Experiment: NCI In Vivo Anticancer Drug Screen. Data for tumor model L1210 Leukemia (intraperitoneal) in B6D2F1 (BDF1) mice
Settings: endpoint: mean survival time, higher = longer survival
Procedure: The antitumor activity of compounds was measured in mice bearing transplantable tumors. Survival or tumor size were measured and the results are expressed as the measurement made in the treated group (T) divided by the measurement made in the vehicle treated control group (C). The tumor model used in this assay is L1210 Leukemia (intraperitoneal) in B6D2F1 (BDF1) mice

[1] = dose: 100.0 mg/kg/injection, schedule: Q04DX003 (ip), vehicle: saline with Tween-80
[2] = dose: 200.0 mg/kg/injection, schedule: Q04DX003 (ip), vehicle: saline with Tween-80
[3] = dose: 400.0 mg/kg/injection, schedule: Q04DX003 (ip), vehicle: saline with Tween-80
[4] = dose: 100.0 mg/kg/injection, schedule: Q04DX003 (ip), vehicle: saline
[5] = dose: 200.0 mg/kg/injection, schedule: Q04DX003 (ip), vehicle: saline
[6] = dose: 400.0 mg/kg/injection, schedule: Q04DX003 (ip), vehicle: saline
[7] = dose: 100.0 mg/kg/injection, schedule: Q04DX002 (ip), vehicle: saline with Tween-80
[8] = dose: 100.0 mg/kg/injection, schedule: Q01DX009 (ip), vehicle: Klucel (hydroxypropylcellulose) (HPC)
[9] = dose: 200.0 mg/kg/injection, schedule: Q01DX009 (ip), vehicle: Klucel (hydroxypropylcellulose) (HPC)
[10] = dose: 400.0 mg/kg/injection, schedule: Q01DX009 (ip), vehicle: Klucel (hydroxypropylcellulose) (HPC)
[11] = dose: 100.0 mg/kg/injection, schedule: Q01DX009 (ip), vehicle: saline with Tween-80
[12] = dose: 200.0 mg/kg/injection, schedule: Q01DX009 (ip), vehicle: saline with Tween-80
[13] = dose: 400.0 mg/kg/injection, schedule: Q01DX009 (ip), vehicle: saline with Tween-80

Measured: T/C

C=C(C)COc1c(C)cc(C)cc1[N+](=O)[O-]
inactive: [1] 96 % of control | [2] 100 % of control | [3] 97 % of control

CCCCCCCCCCCCCCCCCCn1cnc2c(=S)nc[nH]c21
inactive: dose: 12.5 mg/kg/injection, schedule: Q01DX005 (ip), vehicle: other 106 % of control | dose: 25.0 mg/kg/injection, schedule: Q01DX005 (ip), vehicle: other 98 % of control | dose: 50.0 mg/kg/injection, schedule: Q01DX005 (ip), vehicle: other 95 % of control | dose: 100.0 mg/kg/injection, schedule: Q01DX005 (ip), vehicle: other 104 % of control | dose: 200.0 mg/kg/injection, schedule: Q01DX005 (ip), vehicle: other 90 % of control

[O-][N+](=Nc1cccc(Br)c1)c1cccc(Br)c1
inactive: dose: 50.0 mg/kg/injection, schedule: Q01DX001 (ip), vehicle: carboxymethylcellulose (CMC) 101 % of control | dose: 100.0 mg/kg/injection, schedule: Q01DX001 (ip), vehicle: carboxymethylcellulose (CMC) 104 % of control | dose: 200.0 mg/kg/injection, schedule: Q01DX001 (ip), vehicle: carboxymethylcellulose (CMC) 101 % of control | dose: 400.0 mg/kg/injection, schedule: Q01DX001 (ip), vehicle: carboxymethylcellulose (CMC) 117 % of control

O=C(Oc1ccc(O)cc1)c1ccccc1
inactive: dose: 25.6 mg/kg/injection, schedule: Q04DX002 (ip), vehicle: saline 88 % of control | dose: 64.0 mg/kg/injection, schedule: Q04DX002 (ip), vehicle: saline 95 % of control | dose: 160.0 mg/kg/injection, schedule: Q04DX002 (ip), vehicle: saline 92 % of control | dose: 400.0 mg/kg/injection, schedule: Q04DX002 (ip), vehicle: saline 92 % of control

Clc1ccc(N=C/C=C/c2ccccc2)cc1
inactive: dose: 25.0 mg/kg/injection, schedule: Q04DX003 (ip), vehicle: other 95 % of control | dose: 50.0 mg/kg/injection, schedule: Q04DX003 (ip), vehicle: other 108 % of control | dose: 100.0 mg/kg/injection, schedule: Q04DX003 (ip), vehicle: other 100 % of control

O=C(NC(CO)CCCO)c1ccc([N+](=O)[O-])cc1 (stereo not given)
inactive: dose: 100.0 mg/kg/injection, schedule: Q04DX003 (ip), vehicle: Klucel (hydroxypropylcellulose) (HPC) 108 % of control | dose: 200.0 mg/kg/injection, schedule: Q04DX003 (ip), vehicle: Klucel (hydroxypropylcellulose) (HPC) 86 % of control | dose: 400.0 mg/kg/injection, schedule: Q04DX003 (ip), vehicle: Klucel (hydroxypropylcellulose) (HPC) 96 % of control

Cc1cc([N+](=O)[O-])c(C)c([N+](=O)[O-])c1Cl
inactive: dose: 100.0 mg/kg/injection, schedule: Q01DX001 (ip), vehicle: acetone 101 % of control | dose: 100.0 mg/kg/injection, schedule: Q01DX009 (ip), vehicle: saline 90 % of control | [4] 95 % of control | dose: 200.0 mg/kg/injection, schedule: Q01DX001 (ip), vehicle: acetone 97 % of control | dose: 200.0 mg/kg/injection, schedule: Q01DX009 (ip), vehicle: saline 95 % of control | [5] 103 % of control | dose: 400.0 mg/kg/injection, schedule: Q01DX001 (ip), vehicle: acetone 95 % of control | dose: 400.0 mg/kg/injection, schedule: Q01DX009 (ip), vehicle: saline 88 % of control | [6] 98 % of control

O=P(O)(O)O
inactive: dose: 75.0 mg/kg/injection, schedule: Q04DX003 (ip), vehicle: saline 93 % of control | dose: 150.0 mg/kg/injection, schedule: Q04DX003 (ip), vehicle: saline 98 % of control | dose: 300.0 mg/kg/injection, schedule: Q04DX003 (ip), vehicle: saline 103 % of control

S=P(NCCSCc1ccccc1)(N1CC1)N1CC1
inactive: dose: 6.5 mg/kg/injection, schedule: Q01DX011 (ip), vehicle: carboxymethylcellulose (CMC) 98 % of control | dose: 13.0 mg/kg/injection, schedule: Q01DX011 (ip), vehicle: carboxymethylcellulose (CMC) 102 % of control | dose: 26.0 mg/kg/injection, schedule: Q01DX011 (ip), vehicle: carboxymethylcellulose (CMC) 110 % of control | dose: 200.0 mg/kg/injection, schedule: Q01DX015 (ip), vehicle: carboxymethylcellulose (CMC) 106 % of control

CCCC[P+](CC(C)(C)c1ccc(C)cc1)(c1ccccc1)c1ccccc1
inactive: dose: 1.56 mg/kg/injection, schedule: Q04DX002 (ip), vehicle: saline 96 % of control | dose: 3.13 mg/kg/injection, schedule: Q04DX002 (ip), vehicle: saline 104 % of control | dose: 6.25 mg/kg/injection, schedule: Q04DX002 (ip), vehicle: saline 100 % of control | dose: 12.5 mg/kg/injection, schedule: Q04DX002 (ip), vehicle: saline 96 % of control | [7] 103 % of control

Cc1ccc(NC(=O)COc2c(C)cc(Cl)cc2Cl)cc1
inactive: [7] 107 % of control | dose: 200.0 mg/kg/injection, schedule: Q04DX002 (ip), vehicle: saline with Tween-80 96 % of control | dose: 400.0 mg/kg/injection, schedule: Q04DX002 (ip), vehicle: saline with Tween-80 93 % of control

CN1CCN(C(=S)Nc2ccc([N+](=O)[O-])cc2)CC1
inactive: [8] 98 % of control | [9] 105 % of control | [10] 96 % of control

Cc1ccccc1N=C1C(=O)Nc2ccccc21
inactive: dose: 100.0 mg/kg/injection, schedule: Q01DX001 (ip), vehicle: other 115 % of control | dose: 200.0 mg/kg/injection, schedule: Q01DX001 (ip), vehicle: other 91 % of control | dose: 400.0 mg/kg/injection, schedule: Q01DX001 (ip), vehicle: other 107 % of control

CC1(C)CC(=O)C(C)(CCc2ccccc2)C(=O)C1
inactive: [1] 97 % of control | [2] 98 % of control | [3] 95 % of control

C=C(C)Cc1c(C)c(C)c(OS(=O)(=O)c2ccc(Br)cc2)c(C)c1C
inactive: dose: 50.0 mg/kg/injection, schedule: Q04DX003 (ip), vehicle: gum acacia 89 % of control | dose: 100.0 mg/kg/injection, schedule: Q04DX003 (ip), vehicle: gum acacia 89 % of control | dose: 200.0 mg/kg/injection, schedule: Q04DX003 (ip), vehicle: gum acacia 91 % of control

CNC(=O)NNc1ccccc1
inactive: [11] 101 % of control | [12] 101 % of control | [13] 105 % of control

CSc1ccccc1C(O)Cc1ccc([N+](=O)[O-])cc1 (stereo not given)
inactive: [8] 105 % of control | [4] 98 % of control | [9] 93 % of control | [5] 98 % of control | [10] 96 % of control | [6] 95 % of control

CCCCP(=O)(CCCC)Oc1ccccc1F
inactive: [11] 90 % of control | [12] 86 % of control

CC(=O)OCC(C)CCC(=O)C(C)C1C(=O)CC2CC3CC(OC(C)=O)CCC3(C)CC21C (stereo not given)
inactive: dose: 100.0 mg/kg/injection, schedule: Q04DX002 (ip), vehicle: Klucel (hydroxypropylcellulose) (HPC) 96 % of control | dose: 200.0 mg/kg/injection, schedule: Q04DX002 (ip), vehicle: Klucel (hydroxypropylcellulose) (HPC) 100 % of control | dose: 400.0 mg/kg/injection, schedule: Q04DX002 (ip), vehicle: Klucel (hydroxypropylcellulose) (HPC) 96 % of control

Cc1cc(C)c(S(=O)(=O)c2ccc(F)cc2)c(C)c1
inactive: [11] 98 % of control | [12] 98 % of control | [13] 101 % of control
